From PubChem BioAssay (NCI)
Several values for one entry are separate records, joined by “and”; a condition that tells them apart may be missing. Equal values may be shown once.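 Test compounds were applied to cells in 96-well plates for 48 hours at 5 doses. At the GI50, growth is halved. At the TGI there is no net growth.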

Experiments:
Test in all cases: NCI anticancer screen, dose series, 48 h
SNB-75 CNS = system: SNB-75 CNS
HOP-62 NSCLC = system: HOP-62 NSCLC
SK-MEL-5 melanoma = system: SK-MEL-5 melanoma
SK-OV-3 ovarian = system: SK-OV-3 ovarian
CCRF-CEM leukemia = system: CCRF-CEM leukemia
MOLT-4 leukemia = system: MOLT-4 leukemia
K-562 leukemia = system: K-562 leukemia
KM12 colon = system: KM12 colon
NCI-H522 lung = system: NCI-H522 lung
T-47D breast = system: T-47D breast

| Structure (SMILES) | TGI (SNB-75 CNS) | TGI (HOP-62 NSCLC) | TGI (SK-MEL-5 melanoma) | TGI (SK-OV-3 ovarian) | TGI (CCRF-CEM leukemia) [µM] | TGI (MOLT-4 leukemia) [µM] | TGI (K-562 leukemia) [µM] | TGI (KM12 colon) | TGI (NCI-H522 lung) | TGI (T-47D breast) [µM] | GI50 (SNB-75 CNS) | GI50 (HOP-62 NSCLC) [µM] | GI50 (KM12 colon) [µM] | GI50 (SK-MEL-5 melanoma) | GI50 (SK-OV-3 ovarian) [µM] | GI50 (NCI-H522 lung) | GI50 (CCRF-CEM leukemia) | GI50 (MOLT-4 leukemia) | GI50 (K-562 leukemia) | GI50 (T-47D breast) [µM] |
| --- | --- | --- | --- | --- | --- | --- | --- | --- | --- | --- | --- | --- | --- | --- | --- | --- | --- | --- | --- | --- |
| CC(=O)C1C(c2ccc(N(C)C)cc2)c2cc3c(cc2OC1(C)O)OCO3 (configuration not stated) | 68.2 µM | > 100 µM | 93 µM | > 100 µM | > 100 | > 100 | 63.5 | – | – | – | – | – | – | – | – | – | – | – | – | – |
| Oc1ccc2ccccc2c1N=Nc1ccsc1 | > 100 µM | > 100 µM | > 100 µM | > 100 µM | > 100 | > 100 | > 100 | > 100 µM | > 100 µM | – | – | – | – | – | – | – | – | – | – | – |
| CC1CCCC(C(O)CC2CC(=O)NC(=O)C2)C1O (configuration not stated) | > 100 µM | > 100 µM | > 100 µM | > 100 µM | > 100 | > 100 | > 100 | > 100 µM | – | > 100 | – | – | – | – | – | – | – | – | – | – |
| CC12CCC3(OCCO3)C(OC(=O)c3ccccc3)=C1CCC21OCCO1 (configuration not stated) | > 100 µM | > 100 µM | > 100 µM | > 100 µM | > 100 | > 100 | – | > 100 µM | > 100 µM | – | – | – | – | – | – | – | – | – | – | – |
| Oc1ccc(C(c2ccc(O)cc2)c2ccc(O)cc2)cc1 | – | – | 30.6 µM | 42 µM | 92.6 | 52.2 | – | 32.4 µM | 32.9 µM | 41 | – | – | – | – | – | – | – | – | – | – |
| COc1cc(N(C)C)c(OC)cc1/C=C\c1ccnc2ccccc12 | 9.62 µM | > 10 µM | 3.13 µM | > 10 µM | 9.41 | 8.06 | > 10 | > 10 µM | > 10 µM | – | – | – | – | – | – | – | – | – | – | – |
| Cc1ccc(NC(=O)CC2Sc3ccccc3NC2=O)c(C)c1 (configuration not stated) | 19.2 µM | 34 µM | 30.9 µM | 33 µM | 78.4 | 72.9 | 19 | 20.1 µM | 30.4 µM | – | – | – | – | – | – | – | – | – | – | – |
| O=C(c1ccccc1)C(CN1CCCCC1)c1ccccc1 (configuration not stated) | 15.4 µM | 5.9 µM | 6.74 µM | 24.8 µM | 2.34 | 5.09 | 14.2 | 13.8 µM | 2.53 µM | – | 3.46 µM | 2.03 | 3.75 | 2.38 µM | 7.27 | 0.316 µM | 0.301 µM | 1.96 µM | 0.712 µM | – |
| C/C(CC(=O)Nc1ccc(C)c(C)c1)=N\NC(N)=O | > 100 µM | > 100 µM | > 100 µM | > 100 µM | > 100 | > 100 | > 100 | > 100 µM | > 100 µM | – | – | – | – | – | – | – | – | – | – | – |
| O=[P+](O)c1ccsc1 | – | > 100 µM | > 100 µM | > 100 µM | > 100 | > 100 | > 100 | – | > 100 µM | – | – | – | – | – | – | – | – | – | – | – |
| NCCOCCOCCNc1nc(-c2ccccc2)nc(N2CCN(c3ccccn3)CC2)n1 | 30.2 µM | 31 µM | 20.9 µM | 34.2 µM | 33.2 | 29.4 | 22.9 | 31 µM | – | 30.3 | 14.3 µM | 16.7 | 16.1 | 8.37 µM | 18.8 | – | 14.3 µM | 12.8 µM | 7.87 µM | 11.7 |
| O=c1c(Br)cc2nc3ccccc3sc-2c1Br | > 100 µM | > 100 µM | > 100 µM | > 100 µM | > 100 | > 65.8 | 55.5 | > 100 µM | 36.2 µM | – | – | – | – | – | – | – | – | – | – | – |
| O=C(c1ccccc1)C1OC1c1ccc([N+](=O)[O-])cc1 (configuration not stated) | 72.7 µM | 65.9 µM | 16.7 µM | 90.3 µM | > 100 | – | – | 17.7 µM | 7.11 µM | 71.1 | 2.92 µM | 4.76 | 3.83 | 3.81 µM | 29.1 | 2.13 µM | 2.89 µM | – | – | 3.9 |
| C[n+]1c2cc(N)ccc2cc2ccc(N)cc21 | 4.05 µM [middle of 4 runs] | 2.45 µM and 10.7 µM and 3.7 µM | 2.57 µM [middle of 4 runs] | – | – | – | – | – | 3.68 µM [middle of 4 runs] | – | 1.55 µM [middle of 4 runs] | – | – | 1.23 µM [middle of 4 runs] | – | 917 nM [middle of 4 runs] | 2.1 µM [middle of 4 runs] | 547 nM [middle of 4 runs] | 1.18 µM [middle of 4 runs] | – |
| O=C(O)CCC(N=Cc1nc(-c2ccccc2)oc1O)C(=O)O (configuration not stated) | > 100 µM | > 100 µM | > 100 µM | > 100 µM | > 100 | > 100 | > 100 | > 100 µM | > 100 µM | – | – | – | – | – | – | – | – | – | – | – |
| CCOC(=O)N1CCC(=O)C(CNC23CC4CC(CC(C4)C2)C3)C1 (configuration not stated) | – | > 100 µM | > 100 µM | > 100 µM | 35.9 | 38.9 | 31.2 | > 100 µM | 34 µM | – | – | – | – | – | – | – | – | – | – | – |
| COC(=O)c1cc(O)c2cc3c(cc2c1-c1cc(OC)c(OC)c(OC)c1)OCO3 | 32 µM | 18.4 µM | > 100 µM | > 100 µM | – | – | – | > 100 µM | 1.13 µM | > 100 | 1.37 µM | 1.79 | 0.503 | 0.891 µM | 3.02 | 0.272 µM | – | – | – | 2.38 |
| CC(C)([NH-])CO.CC(C)([NH-])CO.[Cl][Cd][Cl] | – | > 100 µM | – | – | 38.8 | 47.3 | 40 | > 100 µM | 3.37 µM | – | – | > 100 | 36.5 | 4.47 µM | – | 1.56 µM | 15.9 µM | 21.8 µM | 18.7 µM | – |
| CCC/C(=N\NC(=S)N1CC2CCC(CC2)C1)c1ccccn1 | 3.21 µM and 2.18 µM | 4.92 µM and 2.7 µM | 0.757 µM and 0.483 µM | 2.13 µM and 2.31 µM | – | – | 1.23 | 0.631 µM and 1.32 µM | 0.738 µM | 0.233 | 0.595 µM | 1.16 | 0.0382 | 0.0467 µM | 1.1 | – | – | – | – | – |
